Data from PubChem BioAssay (NCI).
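Step 1: Grow cells in 96-well plates. Step 2: Expose to compound for 48 hours at 5 concentrations. Step 3: Interpolate endpoints linearly; if unreached, use highest concentration. TGI: total growth inhibition.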

Experiments:
Assay in all cases: NCI tumour cell line growth inhibition, 48 h
[1] = tested on: NCI/ADR-RES ovarian
[2] = tested on: SK-MEL-2 melanoma
[3] = tested on: SN12C renal
[4] = tested on: HCC-2998 colon
[5] = tested on: A498 renal
[6] = tested on: EKVX NSCLC
[7] = tested on: SNB-19 CNS
[8] = tested on: 786-0 renal
[9] = tested on: SK-MEL-5 melanoma
[10] = tested on: T-47D breast
[11] = tested on: UACC-257 melanoma
[12] = tested on: RPMI-8226 leukemia
[13] = tested on: K-562 leukemia
[14] = tested on: CCRF-CEM leukemia
[15] = tested on: HT29 colon
[16] = tested on: HOP-62 NSCLC
[17] = tested on: NCI-H522 lung
[18] = tested on: CAKI-1 renal
[19] = tested on: SK-MEL-28 melanoma
[20] = tested on: SR leukemia

SMILES | TGI [1] [µM] | TGI [2] [µM] | TGI [3] [µM] | TGI [4] [µM] | TGI [5] [µM] | TGI [6] [µM] | TGI [7] [µM] | TGI [8] [µM] | TGI [9] [µM] | TGI [10] [µM] | TGI [11] [µM] | TGI [12] [µM] | TGI [13] [µM] | TGI [14] [µM] | TGI [15] [µM] | TGI [16] [µM] | TGI [17] [µM] | TGI [18] [µM] | TGI [19] [µM] | TGI [20] [µM]
CC(=O)c1cc2c(s1)C(=O)c1sccc1C2=O | 0.309 | 0.193 | 0.0294 | 0.392 | 2.77 | 0.475 | 0.202 | 0.421 | 0.0216 | 0.7 | 0.0289 | 0.191 | 0.174 | 0.0912 | 0.426 | 0.0854 | 0.0521 | 0.413 |  | 
CC(O)CN1c2ccccc2Sc2ccccc21 (stereo unspecified) | > 100 |  | > 100 | > 100 | > 100 | > 100 | > 100 | > 100 | > 100 | > 100 | > 100 |  | > 100 | > 100 | > 100 | > 100 | > 100 | > 100 | > 100 | 
O=C(Cc1ccccc1)NN1C(=O)/C(=C\c2cccc([N+](=O)[O-])c2)SC1=Nc1ccccc1 | > 100 | > 100 | > 100 | > 100 | > 100 | > 100 | > 100 | > 100 | > 100 | > 100 | > 100 | > 100 | > 100 |  | > 100 | > 100 |  |  | > 100 | 
CN(C)C=Nc1c2ccccc2nc2ccccc12 | 34.6 | 9.26 | 11.9 |  | 21 | 29.1 | 17.9 | 16.9 | 12.5 | 9.67 | 9.3 | 6.88 | 22.6 | 21.2 | 14.5 | 25.4 | 4.99 | > 100 | 5.42 | 
CCOC(=O)C1=C(C)NC2=C(C(=O)N(c3ccccc3)C2c2ccccc2)C1c1ccccc1 (stereo unspecified) |  | 33.5 | 35.8 | 31.7 |  | 44.2 |  | 35.8 | 28.6 |  | 40.2 | 53.4 | > 100 | 58 | 37.2 | 33.4 | 25.9 | 31.6 | 34.8 | 45.5
COc1ccc(C2ON(c3ccccc3)CC=C2C)cc1 (stereo unspecified) |  | 78.3 | > 100 | > 100 |  | > 100 | > 100 | > 100 |  |  | > 100 | > 100 | > 100 | > 100 | > 100 | > 100 | 99.5 | > 100 | > 100 | > 100
Cc1ccc(S(=O)(=O)N2CCN(C=S)CC2)cc1 |  | > 100 | > 100 | > 100 | > 100 | > 100 | > 100 | > 100 | > 100 |  | > 100 |  | > 100 | > 100 | > 100 | > 100 | > 100 |  | > 100 | > 100
COc1ccc2[nH]c3c(c2c1)CC(=O)N1CCCC(CC3O)C1 (stereo unspecified) | > 100 | > 100 | > 100 | > 100 | > 100 |  | > 100 | > 100 | > 100 | > 100 | > 100 | > 100 | > 100 |  | > 100 |  | > 100 | > 100 | > 100 | 
CC(C)CCNC(=O)C(CC(C)C)NC(=O)[C@H]1O[C@@H]1C(=O)O (stereo partly specified) | > 100 |  | > 100 | > 100 | > 100 | > 100 | > 100 | > 100 | > 100 | > 100 | > 100 |  | > 100 | > 100 | > 100 | > 100 | > 100 | > 100 | > 100 | 
COc1ccc(N2C(=O)C3c4[nH]c5ccccc5c4C4CC(C)(C)CC(C)(C)C4C3C2=O)cc1 (stereo unspecified) |  |  | 33.2 | > 100 | 30.1 | 38.2 | 52.7 | 28.3 | 41.3 |  | 46.1 | > 100 | > 100 | > 100 | > 100 | 31.3 | 38.1 |  | 27.7 | 25.7
CN(C)Cc1cc(C(=O)/C=C/c2ccc(Cl)c(Cl)c2)cc(CN(C)C)c1O | 7.85 |  | 7.83 | 12.5 | 11.1 | 20.8 | 11.6 | 3.09 | 3.37 | 19.9 | 5.1 | > 100 | 4.74 | 11.7 | 2.79 | 6.45 | 3.31 | 4.08 | 10.3 | 
NS(=O)(=O)c1ccc(Nc2c3ccccc3nc3c(C(=O)N4CCN(CCO)CC4)cccc23)cc1 |  | > 100 | > 100 | > 100 | > 100 | > 100 | > 100 | > 100 | > 100 |  | > 100 |  | > 100 | > 100 | > 100 | > 100 | > 100 | > 100 | > 100 | > 100
CCOC(=O)C1(C#N)C(=O)c2cc[n+](CC[n+]3ccc4c(c3)C(=O)C(C#N)(C(=O)OCC)C4=O)cc2C1=O (stereo unspecified) | > 100 | > 100 | > 100 | > 100 | > 100 | > 100 | > 100 | > 100 | 38.5 | > 100 | > 100 | > 100 | > 100 | > 100 | > 100 |  | > 100 | > 100 | > 100 | 
Cc1ccc(Cc2nn(C)c(=O)n2N)cc1 | > 100 | > 100 | > 100 | > 100 | > 100 | > 100 | > 100 | > 100 | > 100 | > 100 | > 100 | > 100 | > 100 |  | > 100 |  |  | > 100 | > 100 | 
CN/C=C(\C(=O)c1ccc(OC)c(OC)c1)c1ccc(OC)cc1 |  | 31.5 | 31.7 |  | 28.2 | > 100 | > 100 | 23.9 | 35 |  | 39.5 | 24.4 | 27.1 | 23.8 | 38.2 | 94 | 36 |  | 39.7 | 60.7
COc1cc2cc(C(=O)N3CC(CCl)c4ccc([N+](=O)[O-])cc43)[nH]c2c(OC)c1OC (stereo unspecified) | > 100 | > 100 | > 100 | > 100 | > 100 | 67.2 | > 100 | > 100 | > 100 | > 100 | > 100 | > 100 | > 100 | > 100 | 36.7 | > 100 | > 100 | > 100 | > 100 | 
C/C(N)=C/C(=O)c1[nH]c(C(=O)O)cc1C1CCN(Cc2ccccc2)C1=O (stereo unspecified) | 51.6 | 77.6 |  | > 100 | > 100 | > 100 | > 100 | 85 | 33.8 | 74.9 | 78.5 | 44.7 | 59 |  | > 100 | 42.8 | 49.2 | > 100 | 72.5 | 
COC(=O)[C@@]1(C)C(=O)CC[C@@H]1C=O |  | > 100 | > 100 |  | > 100 | > 100 | > 100 | > 100 | > 100 |  | > 100 | > 100 | > 100 | > 100 | > 100 | > 100 | > 100 | > 100 |  | > 100
O=[N+]([O-])c1ccc(N/N=C2/CC3=C2CCCCCCCCCC3)c([N+](=O)[O-])c1 | > 100 | > 100 | > 100 | > 100 | > 100 | > 100 | > 100 | > 100 | > 100 | > 100 | > 100 | > 100 | > 100 | > 100 | > 100 | > 100 | > 100 | > 100 | > 100 | 
COc1ccc(C(=O)c2c3cc(OC)c(OC)c(OC)c3cc[n+]2C)cc1 |  | 52.2 | > 100 | 98.8 | > 100 | > 100 | > 100 | 33.5 | 35.1 |  |  | 49 | > 100 | 71.2 | > 100 | > 100 | 62.4 |  | > 100 | > 100
O=c1oc2ccccc2c(O)c1C(c1cnc2ccccc2c1)c1c(O)c2ccccc2oc1=O | > 100 | > 100 | 76.6 |  | > 100 | > 100 | > 100 | > 100 | > 100 | > 100 | > 100 | > 100 | > 100 | > 100 | > 100 | > 100 | > 100 | > 100 | > 100 | 
